# Experimental data taken from article PMC7294595 (Bioorganic & medicinal chemistry, 2020).
# Where a SMILES comes first, the peptide text is derived from it. [ ]: non-standard residue; d: D form. pY = N[C@@H](Cc1ccc(OP(=O)(O)O)cc1)C(=O)O
# Tests used:
# [1] = biological target: STAT3-gp130 phosphopeptide interaction (STAT3 SH2 domain) (Homo sapiens, UniProt P40763); assay: Competition fluorescence polarization assay
# STAT3:DNA binding = details: electrophoretic mobility shift assay measuring STAT3:DNA binding; cited from earlier work
# Sequence of STAT3-gp130 phosphopeptide interaction (STAT3 SH2 domain) (P40763 127-711): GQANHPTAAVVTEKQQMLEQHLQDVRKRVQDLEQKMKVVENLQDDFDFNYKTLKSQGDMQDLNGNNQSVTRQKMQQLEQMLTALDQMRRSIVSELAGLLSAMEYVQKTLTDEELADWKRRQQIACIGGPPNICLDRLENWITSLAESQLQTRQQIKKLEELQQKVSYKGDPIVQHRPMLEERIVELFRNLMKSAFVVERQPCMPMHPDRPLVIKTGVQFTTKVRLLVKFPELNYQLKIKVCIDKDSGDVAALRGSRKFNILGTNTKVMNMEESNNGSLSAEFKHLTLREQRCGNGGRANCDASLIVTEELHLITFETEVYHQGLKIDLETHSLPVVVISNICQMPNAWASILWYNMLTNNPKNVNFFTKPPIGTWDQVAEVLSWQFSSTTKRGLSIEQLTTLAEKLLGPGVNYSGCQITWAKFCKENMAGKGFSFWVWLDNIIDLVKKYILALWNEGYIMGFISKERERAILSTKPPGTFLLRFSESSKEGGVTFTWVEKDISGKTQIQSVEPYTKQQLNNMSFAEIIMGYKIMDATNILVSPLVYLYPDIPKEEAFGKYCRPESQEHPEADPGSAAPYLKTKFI
compound,measurement,setting,value
CC(=O)NCC(=O)N[C@@H](Cc1ccc(OP(=O)(O)O)cc1)C(=O)N[C@@H](CC(C)C)C(=O)N1CCC[C@H]1C(=O)N[C@@H](CCC(N)=O)C(=O)N[C@H](C(=O)N[C@H](C(N)=O)C(C)C)[C@@H](C)O [ac-pTyr] (Ac-G[pY]LPQTV-NH2),IC50,[1],610 nM
Ac-G[pY]LPQTV-NH2 [gp130-derived phosphopeptide],IC50,STAT3:DNA binding,150 nM
